This assay deals with P388 leukemia ip, CD2F1 mice, survival T/C. Description: NCI In Vivo Anticancer Drug Screen. Data for tumor model P388 Leukemia (intraperitoneal) in CD2F1 (CDF1) mice. To be noted: endpoint: median survival time, higher = longer survival. Put shortly:
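Mice carrying the transplanted tumor received test compound or vehicle. Survival was recorded in each group, and the value is the treated-group measurement divided by that of the vehicle-treated control group.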

Where [1] appears, read: dose: 50.0 mg/kg/injection, schedule: Q01DX009 (ip), vehicle: Klucel (hydroxypropylcellulose) (HPC).
Where [2] appears, read: dose: 100.0 mg/kg/injection, schedule: Q01DX009 (ip), vehicle: Klucel (hydroxypropylcellulose) (HPC).
The mark [3] stands for this setting: dose: 200.0 mg/kg/injection, schedule: Q01DX009 (ip), vehicle: Klucel (hydroxypropylcellulose) (HPC).
The mark [4] stands for this setting: dose: 400.0 mg/kg/injection, schedule: Q01DX009 (ip), vehicle: Klucel (hydroxypropylcellulose) (HPC).
Where [5] appears, read: dose: 50.0 mg/kg/injection, schedule: Q01DX009 (ip), vehicle: saline.
Where [6] appears, read: dose: 100.0 mg/kg/injection, schedule: Q01DX009 (ip), vehicle: saline.
Where [7] appears, read: dose: 100.0 mg/kg/injection, schedule: Q01DX005 (ip), vehicle: Klucel (hydroxypropylcellulose) (HPC).

“And” between values parts separate entries of the source, which are not always exact repeats. Identical values can stand only once. Inconclusive results and toxic doses are left out.

Turning to `Cc1nc2c(sc3ccccc3n2C)c2nc3c(sc4ccccc4n3C)c(C)c12`, the T/C was 92 % of control (dose: 50.0 mg/kg/injection, schedule: Q01DX005 (ip), vehicle: saline with Tween-80); 90 % of control (dose: 100.0 mg/kg/injection, schedule: Q01DX005 (ip), vehicle: saline with Tween-80); 86 % of control (dose: 200.0 mg/kg/injection, schedule: Q01DX005 (ip), vehicle: saline with Tween-80).
In the case of `Cn1c(=O)c2c(nc(NCC[N+](C)(C)Cc3ccc(Cl)cc3)n2C)n(C)c1=O`, the T/C is, setting by setting: (dose: 6.25 mg/kg/injection, schedule: Q01DX009 (ip), vehicle: Klucel (hydroxypropylcellulose) (HPC)) 93 % of control; (dose: 12.5 mg/kg/injection, schedule: Q01DX009 (ip), vehicle: Klucel (hydroxypropylcellulose) (HPC)) 101 % of control; (dose: 25.0 mg/kg/injection, schedule: Q01DX009 (ip), vehicle: Klucel (hydroxypropylcellulose) (HPC)) 113 % of control and 94 % of control.
Turning to `Cc1nnc2c(=O)n(C)ccn12`, the T/C was 95 % of control (dose: 25.0 mg/kg/injection, schedule: Q01DX001 (ip), vehicle: saline with Tween-80); 95 % of control (dose: 50.0 mg/kg/injection, schedule: Q01DX001 (ip), vehicle: saline with Tween-80); 97 % of control (dose: 100.0 mg/kg/injection, schedule: Q01DX001 (ip), vehicle: saline with Tween-80).
On to `Cc1cccc(-c2nc3c(C)nc(-c4ccccc4)nc3n2Nc2ccccc2)c1`, for which the T/C (dose: 100.0 mg/kg/injection, schedule: Q01DX001 (ip), vehicle: Klucel (hydroxypropylcellulose) (HPC)) is 87 % of control.
Regarding `CCCC(NC(=O)C(C)N)C(=O)O` (centres undefined), the T/C is 107 % of control under setting [1], 95 % of control under setting [2], 102 % of control under setting [3] and 102 % of control under setting [4].
For the molecule `COC(=O)c1cc(-c2ccccc2)c2c(=O)n(-c3ccccc3)[nH]c2n1`, the T/C runs as follows: (dose: 60.0 mg/kg/injection, schedule: Q01DX005 (ip), vehicle: saline with Tween-80) 99 % of control; (dose: 120.0 mg/kg/injection, schedule: Q01DX005 (ip), vehicle: saline with Tween-80) 100 % of control; (dose: 240.0 mg/kg/injection, schedule: Q01DX005 (ip), vehicle: saline with Tween-80) 96 % of control.
As for `CCOC(=O)C(N)C[S][Sn]([CH3])([CH3])[Cl]` (centres undefined), for the setting “dose: 50.0 mg/kg/injection, schedule: Q01DX009 (ip), vehicle: saline with Tween-80”, the T/C was 91 % of control.
Take `O=C(O)CNc1ncnc2c1CCc1ccccc1-2`: the T/C (dose: 100.0 mg/kg/injection, schedule: Q04DX002 (ip), vehicle: saline) is 100 % of control; the T/C (dose: 200.0 mg/kg/injection, schedule: Q04DX002 (ip), vehicle: saline) was 99 % of control; the T/C (dose: 400.0 mg/kg/injection, schedule: Q04DX002 (ip), vehicle: saline) is 91 % of control.
Consider `O=S(=O)(F)c1ccc(O)cc1`, for which the T/C was 96 % of control (dose: 15.0 mg/kg/injection, schedule: Q01DX005 (ip), vehicle: saline); 99 % of control (dose: 30.0 mg/kg/injection, schedule: Q01DX005 (ip), vehicle: saline); 99 % of control and 97 % of control (dose: 60.0 mg/kg/injection, schedule: Q01DX005 (ip), vehicle: saline).
In the case of `COC(=O)C(Cl)Cc1cnc[nH]1` (centres undefined), the T/C runs as follows: under setting [5], 92 % of control; under setting [6], 98 % of control; (dose: 200.0 mg/kg/injection, schedule: Q01DX009 (ip), vehicle: saline) 92 % of control.
In the case of `CC(=O)Oc1ccc[nH]c1=O`, the T/C is 104 % of control (dose: 100.0 mg/kg/injection, schedule: Q01DX009 (ip), vehicle: saline with Tween-80); 113 % of control (dose: 100.0 mg/kg/injection, schedule: Q04DX003 (ip), vehicle: saline with Tween-80); 118 % of control (dose: 200.0 mg/kg/injection, schedule: Q01DX009 (ip), vehicle: saline with Tween-80); 104 % of control (dose: 200.0 mg/kg/injection, schedule: Q04DX003 (ip), vehicle: saline with Tween-80); 155 % of control (dose: 300.0 mg/kg/injection, schedule: Q01DX009 (ip), vehicle: saline); 158 % of control (dose: 400.0 mg/kg/injection, schedule: Q01DX009 (ip), vehicle: saline). The T/C was 109 % of control (dose: 400.0 mg/kg/injection, schedule: Q04DX003 (ip), vehicle: saline with Tween-80); 87 % of control and 91 % of control (dose: 500.0 mg/kg/injection, schedule: Q01DX009 (ip), vehicle: saline); 115 % of control (dose: 600.0 mg/kg/injection, schedule: Q01DX009 (ip), vehicle: saline sonified); 172 % of control (dose: 600.0 mg/kg/injection, schedule: Q01DX009 (ip), vehicle: saline with Tween-80); 110 % of control (dose: 600.0 mg/kg/injection, schedule: Q01DX009 (ip), vehicle: saline).
For `CC(=O)OC1OC(CO)C(OCc2ccccc2)C(OCc2ccccc2)C1OC(C)=O` (centres undefined), the T/C by setting is: (dose: 4.0 mg/kg/injection, schedule: Q01DX009 (ip), vehicle: other) 116 % of control; (dose: 8.0 mg/kg/injection, schedule: Q01DX009 (ip), vehicle: other) 104 % of control; (dose: 16.0 mg/kg/injection, schedule: Q01DX009 (ip), vehicle: other) 100 % of control; (dose: 32.0 mg/kg/injection, schedule: Q01DX009 (ip), vehicle: other) 92 % of control; (dose: 50.0 mg/kg/injection, schedule: Q01DX009 (ip), vehicle: other) 99 % of control; (dose: 64.0 mg/kg/injection, schedule: Q01DX009 (ip), vehicle: other) 98 % of control. Besides, the T/C was 99 % of control (dose: 100.0 mg/kg/injection, schedule: Q01DX009 (ip), vehicle: other); 99 % of control (dose: 200.0 mg/kg/injection, schedule: Q01DX009 (ip), vehicle: other); 99 % of control (dose: 400.0 mg/kg/injection, schedule: Q01DX009 (ip), vehicle: other).
As to `COc1ccc(/C=C2\SC(=S)NC2=O)cc1OC`, the T/C by setting is: under setting [1], 94 % of control; under setting [2], 92 % of control; under setting [3], 94 % of control; under setting [4], 91 % of control.
In the case of `CN(C)c1ccc2c(NCCCCCCNc3ccnc4cc(N(C)C)ccc34)ccnc2c1`, the T/C reads like this: (dose: 1.56 mg/kg/injection, schedule: Q01DX009 (ip), vehicle: distilled water + alcohol) 116 % of control; (dose: 6.25 mg/kg/injection, schedule: Q01DX009 (ip), vehicle: distilled water + alcohol) 120 % of control; (dose: 12.5 mg/kg/injection, schedule: Q01DX009 (ip), vehicle: distilled water + alcohol) 150 % of control and 152 % of control; (dose: 25.0 mg/kg/injection, schedule: Q01DX009 (ip), vehicle: distilled water + Tween-80 + alcohol) 174 % of control; (dose: 50.0 mg/kg/injection, schedule: Q01DX009 (ip), vehicle: distilled water + alcohol) 168 % of control.
As for `NOCc1cccc(C(F)(F)F)c1`, the T/C (dose: 75.0 mg/kg/injection, schedule: Q01DX009 (ip), vehicle: saline with Tween-80) is 87 % of control; the T/C (dose: 150.0 mg/kg/injection, schedule: Q01DX009 (ip), vehicle: saline with Tween-80) was 91 % of control; the T/C (dose: 300.0 mg/kg/injection, schedule: Q01DX009 (ip), vehicle: saline with Tween-80) was 91 % of control.
Turning to `CC1(C)CC(C)(C)c2c1oc(=O)c1c3c(oc(=O)c21)C(C)(C)CC3(C)C`, the T/C (dose: 3.12 mg/kg/injection, schedule: Q01DX005 (ip), vehicle: Klucel (hydroxypropylcellulose) (HPC)) is 96 % of control; the T/C (dose: 6.25 mg/kg/injection, schedule: Q01DX005 (ip), vehicle: Klucel (hydroxypropylcellulose) (HPC)) was 100 % of control; the T/C (dose: 12.5 mg/kg/injection, schedule: Q01DX005 (ip), vehicle: Klucel (hydroxypropylcellulose) (HPC)) was 87 % of control; the T/C (dose: 25.0 mg/kg/injection, schedule: Q01DX005 (ip), vehicle: Klucel (hydroxypropylcellulose) (HPC)) was 87 % of control and 90 % of control; the T/C under setting [7] was 90 % of control and 91 % of control.
For the molecule `O=c1oc(-c2cccc(-c3nc4c(c(=O)o3)CCS4)c2)nc2c1CCS2`, the T/C (dose: 50.0 mg/kg/injection, schedule: Q01DX005 (ip), vehicle: Klucel (hydroxypropylcellulose) (HPC)) was 97 % of control; the T/C under setting [7] was 100 % of control; the T/C (dose: 200.0 mg/kg/injection, schedule: Q01DX005 (ip), vehicle: Klucel (hydroxypropylcellulose) (HPC)) is 91 % of control.
For `Nc1cccc(S(=O)(=O)Nc2ncc(Cl)cn2)c1.[Ag]`, the T/C by setting is: under setting [5], 93 % of control; under setting [6], 108 % of control.

For the origin of these results see PubChem BioAssay AID330 (DTP/NCI, 2004).
